Test results published in US12171866B2, “Lipid emulsion for parenteral nutrition comprising GPC” (BAXTER INTERNATIONAL INC., priority 2018, dated 2024).
“Also recorded” adds a separate entry of the source.

Legend:
[1] = test system: male Sprague-Dawley rats with steatosis, induced by choline and methionine deficient (MCD) diet; test: Alanine aminotransferase (ALT) activity in plasma, animal study Step #2 (FIG. 1); type: in vivo, rat
Protocol: ALT activity is determined by a modification recommended by the International Federation of Clinical Chemistry (IFCC), see also Example 2. ALT catalyzes the reaction of alpha-ketoglutarate with L-alanine to form L-glutamate and pyruvate. Under the action of LDH, pyruvate converts to lactate, and NADH is converted to NAD. The decrease in absorbance of NADH, measured at 340 nm (secondary wavelength is 700 nm), is directly proportional to the serum activity of ALT. It is a kinetic reaction. In general, serum is used for analysis. The serum is separated from the cells within 2 hours of collection and stored at -70° C. until assayed, Monitoring the ALT activity over time in an animal model is used herein as one straightforward and conclusive way to determine the efficacy of GPC in treating liver disease, specifically liver damage caused by a choline-deficient diet (Examples 1 and 2, FIGS. 1 and 2), Plasma-free choline concentration can be determined by high-pressure liquid chromatography (HPLC) and gas chromatography-mass spectrometry according to protocols known in the art (Pomfret et. al.: Measurement of choline and choline metabolite concentrations using high pressure liquid chromatography and gas chromatography-mass spectrometry. Anal Biochem. 1989; 180: 85-90). The effects of GPC as well as of the combination of DHA, ARA and GPC were investigated in a sick animal model, wherein male Sprague-Dawley rats with steatosis, induced by choline and methionine deficient (MCD) diet (S SNIFF MCD pelleted choline/methionine deficient diet (SSNIFF Spezialdiäten GmbH, Soest, Germany, Product No. E15653-94)) were kept on parenteral nutrition. Steatosis was confirmed in the respective groups by histopathology (Example 3). Parenteral nutrition started after 14 days under MCD diet. First measurements were done after 5 days of parenteral nutrition, followed by measurements after 9 and 17 days. The daily lipid uptake was 2.31 g/kg/d. The rats were split into several groups as set forth below in Table I. Two groups served as control groups, wherein a first group was treated with saline solution (0.90% w/v of NaCl in water for injection). A second group received a lipid emulsion (“LE 10%”) containing refined olive oil (80.0 g/L) and refined soybean oil (20.0 g/L) in water for injection, pH 6-8; LE 10% further contained egg lecithin (6.0 g/L), glycerol (11.25 g/L) and sodium oleate (0.15 g/L). LE 10% contained 100 g/L lipids. […] Pharmaceutical Secondary Standard, was purchased from Sigma-Aldrich (Merck KGaA, Germany). […] As described before, liver damage (cholestasis) may be determined by increased aminotransferase levels. ALT activity was determined with an ADVIA 1800 blood biochemistry analyzer/IFCC modified (Siemens) according to standard protocols such as described before.

[2] = test system: male Sprague-Dawley rats with steatosis, induced by choline and methionine deficient (MCD) diet; test: ALT activity in percent of the normal value, animal study Step #3 (FIG. 2); type: in vivo, rat
Protocol: ALT activity is determined by a modification recommended by the International Federation of Clinical Chemistry (IFCC), see also Example 2. ALT catalyzes the reaction of alpha-ketoglutarate with L-alanine to form L-glutamate and pyruvate. Under the action of LDH, pyruvate converts to lactate, and NADH is converted to NAD. The decrease in absorbance of NADH, measured at 340 nm (secondary wavelength is 700 nm), is directly proportional to the serum activity of ALT. It is a kinetic reaction. In general, serum is used for analysis. The serum is separated from the cells within 2 hours of collection and stored at −70° C. until assayed, Monitoring the ALT activity over time in an animal model is used herein as one straightforward and conclusive way to determine the efficacy of GPC in treating liver disease, specifically liver damage caused by a choline-deficient diet (Examples 1 and 2, FIGS. 1 and 2), Plasma-free choline concentration can be determined by high-pressure liquid chromatography (HPLC) and gas chromatography-mass spectrometry according to protocols known in the art (Pomfret et. al.: Measurement of choline and choline metabolite concentrations using high pressure liquid chromatography and gas chromatography-mass spectrometry. Anal Biochem. 1989; 180: 85-90). […] As described before, liver damage (cholestasis) may be determined by increased aminotransferase levels. […]

[3] = test system: male Sprague-Dawley rats with steatosis, induced by choline and methionine deficient (MCD) diet; test: Liver weight to body weight ratio (FIG. 4); type: in vivo, rat
From the text: (§1) The effects of GPC as well as of the combination of DHA, ARA and GPC were investigated in a sick animal model, wherein male Sprague-Dawley rats with steatosis, induced by choline and methionine deficient (MCD) diet (S SNIFF MCD pelleted choline/methionine deficient diet (SSNIFF Spezialdiäten GmbH, Soest, Germany, Product No. E15653-94)) were kept on parenteral nutrition.
(§2) Parenteral nutrition started after 14 days under MCD diet. First measurements were done after 5 days of parenteral nutrition, followed by measurements after 9 and 17 days. The daily lipid uptake was 2.31 g/kg/d. The rats were split into several groups as set forth below in Table I.
(§3) Two groups served as control groups, wherein a first group was treated with saline solution (0.90% w/v of NaCl in water for injection). A second group received a lipid emulsion (“LE 10%”) containing refined olive oil (80.0 g/L) and refined soybean oil (20.0 g/L) in water for injection, pH 6-8; LE 10% further contained egg lecithin (6.0 g/L), glycerol (11.25 g/L) and sodium oleate (0.15 g/L). LE 10% contained 100 g/L lipids.
(§4) Various choline derivatives selected from the group consisting of choline chloride, glycerophosphocholine (GPC) and cytidine diphosphate-choline (CDP-choline) were added in two concentrations (low/high) to LE 10%, respectively, see Table I (Step #2). “Low” refers to a concentration of 15 mmol/L lipid emulsion, “high” refers to a concentration of 31 mmol/L of lipid emulsion. Choline chloride (2-Hydroxyethyl)trimethylammonium chloride). Pharmaceutical Secondary Standard, was purchased from Sigma-Aldrich (Merck KGaA, Germany). CDP-choline (prepared by fermentation) was from TCI Europe N.V. (Antwerp, Belgium). Glycerophosphocholine, prepared from egg phosphatide by saponification, was supplied by Lipoid GmbH, Germany. DHA (from algae, Schizochytrium sp.) and ARA (from fungi, Mortierella alpina) were purchased from BASF AG, Germany, Vitamin E was purchased from ADM (IL, U.S.A.)
The study groups as described in Example 1 were further evaluated with regard to the development of liver weight versus body weight. An increase in liver weight which is not proportional to the increase of body weight is typical for the development of liver damage, specifically steatosis, as described before.

[4] = Stability of lipid emulsions upon sterilization in the presence of choline derivatives; type: physicochemical; settings: for Stability of lipid emulsion upon sterilization (Comment): heat sterilization; for stability of the lipid emulsions during sterilization (heat): lipid emulsions prepared as in Example 1
From the text: In a first step, raw phases are heated up. […] The receiving vessel is closed and flushed with nitrogen.

[5] = test system: male Sprague-Dawley rats with steatosis, induced by choline and methionine deficient (MCD) diet; test: Liver histopathology, vacuolation, choline derivatives alone, Step #2 (FIG. 3A); type: in vivo, rat; settings: no DHA and ARA
From the text: as §1, §2, §3, §4

[6] = phosphatidylcholine as contained in the lipid emulsion(s)
[7] = plasma, day 5 to day 17 of parenteral nutrition, choline derivative 31 mmol/L (high) in LE 10%
[8] = choline derivative high, 31 mmol/L in LE 10%
[9] = choline derivative low, 15 mmol/L in LE 10%
[10] = choline derivative high, 31 mmol/L in LE 10%, versus LE 10% alone

| Stability of lipid emulsion upon sterilization (Comment) ([4]; 30 mmol/L, lipid emulsions tested LE 10, 20 %) | Compound | development of ALT activity ([1]; phosphatidylcholine as contained in LE lipid emulsion, 17 days parenteral nutrition) | ALT activity, change versus normal value [2, 6] | liver to body weight ratio [3, 6] | development of ALT activity [1, 7] | Stability of lipid emulsion upon sterilization (Comment) ([4]; 15 mmol/L, lipid emulsions tested LE 10, 13, 20 %) | stability of the lipid emulsions during sterilization (heat) [4] | effect on liver vacuolation (histopathological examination) [5, 8] | effect on liver vacuolation (histopathological examination) [5, 9] | liver to body weight ratio [3, 10] | Stability of lipid emulsion upon sterilization (Comment) ([4]; 30 mmol/L, lipid emulsion tested LE 10 %) | ALT activity, change versus normal value ([2]; GPC 40 mmol/L in lipid emulsion, normal (LE 10%) or reduced (LE 13%) phytosterol content) |
| --- | --- | --- | --- | --- | --- | --- | --- | --- | --- | --- | --- | --- |
|  | phosphatidylcholine | does not seem to have any effect | does not seem to have any effect | does not seem to have any effect |  |  |  |  |  |  |  |  |
|  | C[N+](C)(C)CCO.[Cl-] [choline chloride, (2-Hydroxyethyl)trimethylammonium chloride] |  |  |  | ALT activity neither significantly increases or decreases | Phase separation | destabilize the lipid emulsions during sterilization | fared better than those with only saline or lipid emulsion without any choline derivative | fared better than those with only saline or lipid emulsion without any choline derivative | reduction of the ratio |  |  |
|  | C[N+](C)(C)CCOP(=O)(O)OP(=O)([O-])OC[C@H]1O[C@@H](n2ccc(N)nc2=O)[C@H](O)[C@@H]1O [CDP-choline, cytidine diphosphate-choline] |  |  |  | ALT activity neither significantly increases or decreases |  | destabilize the lipid emulsions during sterilization |  | also had an effect | reduction of the ratio | Phase separation |  |
| Stable emulsion | C[N+](C)(C)CCOP(=O)([O-])OC[C@@H](O)CO [GPC, (2-{[(2S)-2,3-dihydroxypropylphosphonato]oxy}ethyl)trimethylazanium] |  |  |  | clear drop in ALT activity; also recorded: most pronounced |  | remained stable | significantly better | significantly better | most pronounced reduction of the ratio |  | significant decrease of ALT activity |
